Assay results: PubChem BioAssay (NCI)
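Assay format: 96-well plates, 48-hour exposure. Abbreviation: GI50, concentration required for 50% inhibition of growth. The concentration for full growth arrest is given as TGI.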 Where a SMILES comes first, the peptide text is derived from it. The star is where a group is joined. Cbz = O=C(OCc1ccccc1)*; Bn = c1ccc(C*)cc1

How the values were obtained:
Experiment in all cases: inhibition of tumour cell growth, NCI panel, 48 h
[1] = tested on: UO-31 renal
[2] = tested on: SK-MEL-5 melanoma
[3] = tested on: HOP-62 NSCLC
[4] = tested on: EKVX NSCLC
[5] = tested on: CAKI-1 renal
[6] = tested on: TK-10 renal
[7] = tested on: LOX IMVI melanoma
[8] = tested on: HCT-15 colon
[9] = tested on: M14 melanoma
[10] = tested on: RXF 393 renal
[11] = tested on: KM12 colon

Row | Structure (SMILES) | TGI [1] [µM] | TGI [2] [µM] | TGI [3] [µM] | TGI [4] [µM] | TGI [5] [µM] | TGI [6] [µM] | TGI [7] [µM] | TGI [8] [µM] | TGI [9] [µM] | TGI [10] [µM] | TGI [11] [µM] | GI50 [1] [µM] | GI50 [2] [µM] | GI50 [3] [µM] | GI50 [4] [µM] | GI50 [5] [µM] | GI50 [6] [µM] | GI50 [8] [µM] | GI50 [9] [µM] | GI50 [11] [µM]
1 | COc1ccc(-c2oc3cc(OC(C)=O)cc(OC(C)=O)c3c(=O)c2OC)cc1 | 51.7 | 25 | 42.4 | 47.8 | 34.9 | 70.8 | 27.9 | > 100 | 30.6 |  |  |  |  |  |  |  |  |  |  | 
2 | CC(=O)OCC1OC(NC(=O)N(CCCl)N=O)C(OC(C)=O)C(OC(C)=O)C1OC(C)=O (centres undefined) | > 100 | > 31.6 | > 100 | > 100 | > 100 |  | > 100 | > 100 |  | > 100 | > 100 |  |  |  |  |  |  |  |  | 
3 | C=CCOCCC(CC=C)C(=O)CC(=O)OC (centres undefined) | > 100 | > 100 | > 100 | > 100 |  | > 100 | > 100 | > 100 | > 100 | > 100 | > 100 |  |  |  |  |  |  |  |  | 
4 | CCn1c(=O)c(C(=O)O)c(Cl)c2cc3c(cc21)OCO3 | > 100 | > 100 | > 100 | > 100 | > 100 |  | > 100 | > 100 |  | > 100 | > 100 |  |  |  |  |  |  |  |  | 
5 | NC(=O)c1ccc([N+](=O)[O-])cc1 | > 100 | > 100 | > 100 | > 100 | > 100 | > 100 | > 100 | > 100 | > 100 | > 100 | > 100 |  |  |  |  |  |  |  |  | 
6 | C1CSCCSCSCCS1 | > 100 | > 100 | > 100 | > 100 | > 100 | > 100 | > 100 | > 100 | > 100 | > 100 | > 100 |  |  |  |  |  |  |  |  | 
7 | O=C1c2cccc(O)c2C(=O)c2c(O)cccc21 | > 100 |  | > 100 | > 100 | > 100 | > 100 | > 100 | > 100 | > 100 | > 100 | > 100 |  |  |  |  |  |  |  |  | 
8 | N=C(N)c1ccc(-c2ccc(-c3ccc4ccccc4c3)s2)s1 | 4.49 | 28 | 5.24 | 7.44 | 11.6 | 4.77 |  | 3.29 | 5.72 |  | 4.08 | 1.97 | 14.7 | 2.08 | 2.46 | 3.11 | 2.23 | 1.69 | 2.45 | 1.92
9 | COc1ccc(N2C(=O)/C(=C\c3ccccc3)SC2c2cc(OC)c(OC)c(OC)c2)cc1 (centres undefined) | > 100 | > 100 | > 100 | > 100 | > 100 | > 100 | > 100 | > 100 | > 100 | > 100 | > 100 |  |  |  |  |  |  |  |  | 
10 | CS(=O)(=O)c1ccc2nc(-c3ccc(O)cc3)sc2c1 | 28 | 31.8 |  | 23.9 | 31.4 | 29.8 | 45.5 | 31.7 | 38.4 | 32.9 | 30.2 |  |  |  |  |  |  |  |  | 
11 | C=CCNC1=C2C[C@@H](C)C[C@H](OC)[C@H](O)[C@@H](C)/C=C(\C)[C@H](OC(N)=O)[C@@H](OC)/C=C\C=C(/C)C(=O)NC(=CC1=O)C2=O | 21.4 | 16.5 | 23.1 | 31.4 | 38 | 48.3 | 2 | 24.5 | 17 | 10.1 | 0.237 |  |  |  |  |  |  |  |  | 
12 | COc1ccc2c(c1)C(OC)C1c3c(cc4c(c3-2)OCO4)CCN1C (centres undefined) | 4.59 | 5.17 | 8.34 | 24.3 | 7.32 | > 63.8 | > 32 | 10.2 | 7.84 | 6.43 | 18.6 |  |  |  |  |  |  |  |  | 
13 | O=C(Nc1ccc(Cl)cc1)c1cc([N+](=O)[O-])ccc1O | 7.65 | 8.25 | 9.26 | 31.3 | 24.4 | > 60.6 | 19.5 | 28.6 | 18.9 | 6.64 | 24.5 |  |  |  |  |  |  |  |  | 
14 | CC1C[C@]2(C[C@@H](C)C(=O)O2)OC2CC3(C)C4CCC5C(C)(C)OC(=O)CC[C@@]56C[C@@]46CC[C@]3(C)C12 (some centres undefined) |  | > 100 |  | > 100 | > 100 | > 100 | > 100 | > 100 | > 100 | > 100 | > 100 |  |  |  |  |  |  |  |  | 
15 | C[n+]1c2ccccc2c(CNCC(=O)O)c2ccccc21 | 22.8 | 14.4 | 19.1 | 12.3 | 1.84 | 3.06 |  | 4.94 | 18.4 | 6.5 | 11 |  |  |  |  |  |  |  |  | 
16 | c1ccc(-c2n(Cc3ccc4ccccc4c3)c3ccccc3[n+]2Cc2ccc3ccccc3c2)cc1 | 2.75 | 0.326 |  |  |  |  |  | 2.91 |  |  | 1.2 | 1.36 | 0.175 |  |  |  |  | 1.39 |  | 0.321
17 | COC(=O)C(Cc1ccc(O)cc1)NC(=O)C(COCc1ccccc1)NC(=O)OCc1ccccc1 (centres undefined) (Cbz-Ser(Bn)-Tyr-OMe; configuration not given here) | 36.5 | 31.4 | 33.6 | 43.8 | 36.4 | 35.2 | 41 | 33.6 | 33.5 | 33.9 | 35 |  |  |  |  |  |  |  |  | 
